Experimental data published in PubChem BioAssay (NCI).
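Tested at 5 concentrations; 48 h exposure; 96-well plates; endpoints linearly interpolated, else capped at highest concentration. Definition used: TGI = concentration required for complete inhibition of growth.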

What was measured:
Experiment in all cases: NCI tumour cell line growth inhibition, 48 h
A498 renal = system: A498 renal
A549 NSCLC = system: A549 NSCLC
CAKI-1 renal = system: CAKI-1 renal
CCRF-CEM leukemia = system: CCRF-CEM leukemia
EKVX NSCLC = system: EKVX NSCLC
HCT-15 colon = system: HCT-15 colon
HL-60(TB) leukemia = system: HL-60(TB) leukemia
HOP-62 NSCLC = system: HOP-62 NSCLC
HOP-92 NSCLC = system: HOP-92 NSCLC
IGROV1 ovarian = system: IGROV1 ovarian
K-562 leukemia = system: K-562 leukemia
KM12 colon = system: KM12 colon
KM20L2 colon = system: KM20L2 colon
LXFL 529 NSCLC = system: LXFL 529 NSCLC
M14 melanoma = system: M14 melanoma
MOLT-4 leukemia = system: MOLT-4 leukemia
NCI-H23 lung = system: NCI-H23 lung
NCI-H522 lung = system: NCI-H522 lung
OVCAR-3 ovarian = system: OVCAR-3 ovarian
OVCAR-4 ovarian = system: OVCAR-4 ovarian
OVCAR-5 ovarian = system: OVCAR-5 ovarian
RPMI-8226 leukemia = system: RPMI-8226 leukemia
RXF-631 renal = system: RXF-631 renal
SF-539 CNS = system: SF-539 CNS
SK-MEL-2 melanoma = system: SK-MEL-2 melanoma
SK-MEL-5 melanoma = system: SK-MEL-5 melanoma
SK-OV-3 ovarian = system: SK-OV-3 ovarian
SN12C renal = system: SN12C renal
SNB-19 CNS = system: SNB-19 CNS
SR leukemia = system: SR leukemia
SW-620 colon = system: SW-620 colon
U251 CNS = system: U251 CNS
UACC-257 melanoma = system: UACC-257 melanoma
UO-31 renal = system: UO-31 renal
786-0 renal = system: 786-0 renal
ACHN renal = system: ACHN renal
COLO 205 colon = system: COLO 205 colon
DLD-1 colon = system: DLD-1 colon
DMS 114 small cell lung = system: DMS 114 small cell lung
DMS 273 small cell lung = system: DMS 273 small cell lung
HCC-2998 colon = system: HCC-2998 colon
HCT-116 colon = system: HCT-116 colon
HT29 colon = system: HT29 colon
LOX IMVI melanoma = system: LOX IMVI melanoma
M19-MEL melanoma = system: M19-MEL melanoma
MALME-3M melanoma = system: MALME-3M melanoma
NCI-H226 lung = system: NCI-H226 lung
NCI-H460 lung = system: NCI-H460 lung
OVCAR-8 ovarian = system: OVCAR-8 ovarian
RXF 393 renal = system: RXF 393 renal
SF-268 CNS = system: SF-268 CNS
SF-295 CNS = system: SF-295 CNS
SNB-75 CNS = system: SNB-75 CNS
TK-10 renal = system: TK-10 renal
XF 498 CNS = system: XF 498 CNS
HOP-18 NSCLC = system: HOP-18 NSCLC
SK-MEL-28 melanoma = system: SK-MEL-28 melanoma
SNB-78 CNS = system: SNB-78 CNS
UACC-62 melanoma = system: UACC-62 melanoma

## CCCCCCc1cc(C(=O)Nc2ccc(Cl)cc2)nc(=S)[nH]1
A498 renal
  TGI: > 1 µM
A549 NSCLC
  TGI: > 100 µM
CAKI-1 renal
  TGI: > 100 µM
CCRF-CEM leukemia
  TGI: > 100 µM
EKVX NSCLC
  TGI: > 100 µM
HCT-15 colon
  TGI: > 1 µM
HL-60(TB) leukemia
  TGI: > 100 µM
HOP-62 NSCLC
  TGI: > 100 µM
HOP-92 NSCLC
  TGI: > 100 µM
IGROV1 ovarian
  TGI: > 100 µM
K-562 leukemia
  TGI: > 100 µM
KM12 colon
  TGI: > 100 µM
KM20L2 colon
  TGI: > 1 µM
LXFL 529 NSCLC
  TGI: > 100 µM
M14 melanoma
  TGI: > 100 µM
MOLT-4 leukemia
  TGI: > 100 µM
NCI-H23 lung
  TGI: > 100 µM
NCI-H522 lung
  TGI: > 100 µM
OVCAR-3 ovarian
  TGI: > 1 µM
OVCAR-4 ovarian
  TGI: > 100 µM
OVCAR-5 ovarian
  TGI: 85.8 µM
RPMI-8226 leukemia
  TGI: > 100 µM
RXF-631 renal
  TGI: > 100 µM
SF-539 CNS
  TGI: > 100 µM
SK-MEL-2 melanoma
  TGI: > 100 µM
SK-MEL-5 melanoma
  TGI: > 100 µM
SK-OV-3 ovarian
  TGI: > 100 µM
SN12C renal
  TGI: > 100 µM
SNB-19 CNS
  TGI: > 1 µM
SR leukemia
  TGI: > 100 µM
SW-620 colon
  TGI: > 100 µM
U251 CNS
  TGI: > 100 µM
UACC-257 melanoma
  TGI: > 100 µM
UO-31 renal
  TGI: > 100 µM

## CN(Cc1ccccc1)C(=O)c1ccccc1C(=O)O
786-0 renal
  TGI: > 100 µM
A549 NSCLC
  TGI: > 100 µM
ACHN renal
  TGI: > 100 µM
CAKI-1 renal
  TGI: > 100 µM
CCRF-CEM leukemia
  TGI: > 100 µM
COLO 205 colon
  TGI: > 100 µM
DLD-1 colon
  TGI: > 100 µM
DMS 114 small cell lung
  TGI: > 100 µM
DMS 273 small cell lung
  TGI: > 100 µM
EKVX NSCLC
  TGI: > 100 µM
HCC-2998 colon
  TGI: > 100 µM
HCT-116 colon
  TGI: > 100 µM
HCT-15 colon
  TGI: > 100 µM
HL-60(TB) leukemia
  TGI: > 100 µM
HOP-92 NSCLC
  TGI: > 100 µM
HT29 colon
  TGI: > 100 µM
IGROV1 ovarian
  TGI: > 100 µM
K-562 leukemia
  TGI: > 100 µM
KM12 colon
  TGI: > 100 µM
KM20L2 colon
  TGI: > 100 µM
LOX IMVI melanoma
  TGI: > 100 µM
LXFL 529 NSCLC
  TGI: > 100 µM
M14 melanoma
  TGI: > 100 µM
M19-MEL melanoma
  TGI: > 100 µM
MALME-3M melanoma
  TGI: > 100 µM
MOLT-4 leukemia
  TGI: > 100 µM
NCI-H226 lung
  TGI: > 100 µM
NCI-H23 lung
  TGI: > 100 µM
NCI-H460 lung
  TGI: > 100 µM
NCI-H522 lung
  TGI: > 100 µM
OVCAR-3 ovarian
  TGI: > 100 µM
OVCAR-4 ovarian
  TGI: > 100 µM
OVCAR-5 ovarian
  TGI: > 100 µM
OVCAR-8 ovarian
  TGI: > 100 µM
RPMI-8226 leukemia
  TGI: > 100 µM
RXF 393 renal
  TGI: > 100 µM
RXF-631 renal
  TGI: > 100 µM
SF-268 CNS
  TGI: > 100 µM
SF-295 CNS
  TGI: > 100 µM
SF-539 CNS
  TGI: > 100 µM
SK-MEL-2 melanoma
  TGI: > 100 µM
SK-OV-3 ovarian
  TGI: > 100 µM
SN12C renal
  TGI: > 100 µM
SNB-19 CNS
  TGI: > 100 µM
SNB-75 CNS
  TGI: > 100 µM
SR leukemia
  TGI: > 100 µM
SW-620 colon
  TGI: > 100 µM
TK-10 renal
  TGI: > 100 µM
U251 CNS
  TGI: > 100 µM
UACC-257 melanoma
  TGI: > 100 µM
UO-31 renal
  TGI: > 100 µM
XF 498 CNS
  TGI: > 100 µM

## CC(=O)C1Cn2c(nc3ccccc32)C[Se]1 (stereo not given)
786-0 renal
  TGI: 9.21 µM
A498 renal
  TGI: 32.7 µM
A549 NSCLC
  TGI: 36.2 µM
ACHN renal
  TGI: 11.4 µM
CAKI-1 renal
  TGI: 5.54 µM
CCRF-CEM leukemia
  TGI: > 100 µM
COLO 205 colon
  TGI: 30.1 µM
DLD-1 colon
  TGI: 13 µM
DMS 114 small cell lung
  TGI: 4.54 µM
EKVX NSCLC
  TGI: 28.7 µM
HCC-2998 colon
  TGI: 22.9 µM
HCT-116 colon
  TGI: 7.7 µM
HCT-15 colon
  TGI: 20.5 µM
HL-60(TB) leukemia
  TGI: 5.71 µM
HOP-18 NSCLC
  TGI: 5.44 µM
HOP-62 NSCLC
  TGI: 5.39 µM
HOP-92 NSCLC
  TGI: 4.72 µM
HT29 colon
  TGI: 23.2 µM
IGROV1 ovarian
  TGI: 6.02 µM
K-562 leukemia
  TGI: 31.7 µM
KM12 colon
  TGI: 10.7 µM
KM20L2 colon
  TGI: 25.8 µM
LOX IMVI melanoma
  TGI: 12 µM
LXFL 529 NSCLC
  TGI: 10.4 µM
M14 melanoma
  TGI: 4.96 µM
M19-MEL melanoma
  TGI: 4.07 µM
MALME-3M melanoma
  TGI: 5.83 µM
MOLT-4 leukemia
  TGI: 6.79 µM
NCI-H226 lung
  TGI: 12.5 µM
NCI-H23 lung
  TGI: 7.29 µM
NCI-H460 lung
  TGI: 16.8 µM
NCI-H522 lung
  TGI: 10.3 µM
OVCAR-3 ovarian
  TGI: 4.5 µM
OVCAR-4 ovarian
  TGI: 11.8 µM
OVCAR-5 ovarian
  TGI: 10.4 µM
OVCAR-8 ovarian
  TGI: 13.3 µM
RPMI-8226 leukemia
  TGI: 62.9 µM
RXF 393 renal
  TGI: 5.2 µM
RXF-631 renal
  TGI: 7.76 µM
SF-268 CNS
  TGI: 11.5 µM
SF-295 CNS
  TGI: 10.1 µM
SF-539 CNS
  TGI: 4.89 µM
SK-MEL-28 melanoma
  TGI: 8.75 µM
SK-MEL-5 melanoma
  TGI: 3.61 µM
SK-OV-3 ovarian
  TGI: 34 µM
SN12C renal
  TGI: 13.8 µM
SNB-19 CNS
  TGI: 16 µM
SNB-75 CNS
  TGI: 8.02 µM
SNB-78 CNS
  TGI: 17.2 µM
SR leukemia
  TGI: 6.96 µM
SW-620 colon
  TGI: 17.3 µM
TK-10 renal
  TGI: 13 µM
U251 CNS
  TGI: 3.76 µM
UACC-257 melanoma
  TGI: 5.38 µM
UACC-62 melanoma
  TGI: 3.64 µM
UO-31 renal
  TGI: 8.46 µM

## O=C(CCc1nc(=S)[nH][nH]1)Nc1ccccc1Cl
786-0 renal
  TGI: > 100 µM
A498 renal
  TGI: > 100 µM
A549 NSCLC
  TGI: > 100 µM
ACHN renal
  TGI: > 100 µM
CAKI-1 renal
  TGI: > 100 µM
CCRF-CEM leukemia
  TGI: > 100 µM
COLO 205 colon
  TGI: > 100 µM
DLD-1 colon
  TGI: > 100 µM
DMS 114 small cell lung
  TGI: > 100 µM
DMS 273 small cell lung
  TGI: > 100 µM
EKVX NSCLC
  TGI: > 100 µM
HCC-2998 colon
  TGI: > 100 µM
HCT-116 colon
  TGI: > 100 µM
HCT-15 colon
  TGI: 41.3 µM
HL-60(TB) leukemia
  TGI: > 100 µM
HOP-18 NSCLC
  TGI: > 100 µM
HOP-62 NSCLC
  TGI: > 100 µM
HOP-92 NSCLC
  TGI: > 100 µM
HT29 colon
  TGI: > 100 µM
IGROV1 ovarian
  TGI: > 100 µM
K-562 leukemia
  TGI: > 100 µM
KM12 colon
  TGI: > 100 µM
KM20L2 colon
  TGI: > 100 µM
LOX IMVI melanoma
  TGI: > 100 µM
LXFL 529 NSCLC
  TGI: > 100 µM
M14 melanoma
  TGI: > 100 µM
M19-MEL melanoma
  TGI: > 100 µM
MALME-3M melanoma
  TGI: > 100 µM
MOLT-4 leukemia
  TGI: > 100 µM
NCI-H226 lung
  TGI: > 100 µM
NCI-H23 lung
  TGI: > 100 µM
NCI-H460 lung
  TGI: > 100 µM
NCI-H522 lung
  TGI: > 100 µM
OVCAR-3 ovarian
  TGI: > 100 µM
OVCAR-4 ovarian
  TGI: > 100 µM
OVCAR-5 ovarian
  TGI: > 100 µM
OVCAR-8 ovarian
  TGI: > 100 µM
RPMI-8226 leukemia
  TGI: > 100 µM
RXF 393 renal
  TGI: > 100 µM
SF-268 CNS
  TGI: > 100 µM
SF-295 CNS
  TGI: > 100 µM
SF-539 CNS
  TGI: > 100 µM
SK-MEL-2 melanoma
  TGI: > 100 µM
SK-MEL-28 melanoma
  TGI: > 100 µM
SK-MEL-5 melanoma
  TGI: > 100 µM
SK-OV-3 ovarian
  TGI: > 100 µM
SN12C renal
  TGI: > 100 µM
SNB-19 CNS
  TGI: > 100 µM
SNB-75 CNS
  TGI: > 100 µM
SNB-78 CNS
  TGI: > 100 µM
SR leukemia
  TGI: > 100 µM
SW-620 colon
  TGI: 35.6 µM
TK-10 renal
  TGI: > 100 µM
U251 CNS
  TGI: > 100 µM
UACC-257 melanoma
  TGI: > 100 µM
UACC-62 melanoma
  TGI: > 100 µM
UO-31 renal
  TGI: > 100 µM
XF 498 CNS
  TGI: > 100 µM
